For this data set the following is noted: 101.33 kPa, Liquid; for viscosity: Capillary tube (Ostwald / Ubbelohde) method; for mass density: Vibrating tube method.

Numbers after ± are expanded uncertainties.

As to `CCCCCCCCO` [octan-1-ol], the viscosity stood at 11.07 ± 0.1 mPa·s (288.15 K); 9.161 ± 0.085 mPa·s (293.15 K); 7.688 ± 0.072 mPa·s (298.15 K); 6.404 ± 0.06 mPa·s (303.15 K); 4.62 ± 0.044 mPa·s (313.15 K). Also, the mass density is recorded as 828.63 ± 0.12 kg/m3 (288.15 K); 825.2 ± 0.12 kg/m3 (293.15 K); 821.74 ± 0.12 kg/m3 (298.15 K); 818.23 ± 0.12 kg/m3 (303.15 K); 811.22 ± 0.12 kg/m3 (313.15 K).
As to `CCO` [ethanol], the viscosity by setting is: (288.15 K) 1.313 ± 0.013 mPa·s; (293.15 K) 1.216 ± 0.012 mPa·s; (298.15 K) 1.132 ± 0.011 mPa·s; (303.15 K) 1.01 ± 0.01 mPa·s; (313.15 K) 0.824 ± 0.008 mPa·s. Also, the mass density was 793.65 ± 0.12 kg/m3 (288.15 K); 789.34 ± 0.12 kg/m3 (293.15 K); 785.07 ± 0.12 kg/m3 (298.15 K); 780.72 ± 0.12 kg/m3 (303.15 K); 771.97 ± 0.13 kg/m3 (313.15 K).
Turning to `CCOC(=O)OCC` [diethyl carbonate], the viscosity by setting is: (288.15 K) 0.864 ± 0.009 mPa·s; (293.15 K) 0.803 ± 0.008 mPa·s; (298.15 K) 0.757 ± 0.008 mPa·s; (303.15 K) 0.7 ± 0.007 mPa·s; (313.15 K) 0.616 ± 0.006 mPa·s. The mass density reads like this: (288.15 K) 980.39 ± 0.07 kg/m3; (293.15 K) 974.83 ± 0.07 kg/m3; (298.15 K) 969.15 ± 0.08 kg/m3; (303.15 K) 963.39 ± 0.08 kg/m3; (313.15 K) 952.1 ± 0.08 kg/m3.
Turning to `CCCO` [propan-1-ol], the viscosity (288.15 K) was found to be 2.507 ± 0.024 mPa·s; the viscosity (293.15 K) amounted to 2.202 ± 0.021 mPa·s; the viscosity (298.15 K) turned out to be 1.973 ± 0.019 mPa·s; the viscosity (303.15 K) is reported as 1.733 ± 0.017 mPa·s; the viscosity (313.15 K) is 1.381 ± 0.014 mPa·s. Also, the mass density reads like this: (288.15 K) 807.55 ± 0.12 kg/m3; (293.15 K) 803.52 ± 0.13 kg/m3; (298.15 K) 799.45 ± 0.13 kg/m3; (303.15 K) 795.47 ± 0.13 kg/m3; (313.15 K) 787.28 ± 0.13 kg/m3.
For the molecule `CCCCCO` [pentan-1-ol], the viscosity is, setting by setting: (288.15 K) 4.682 ± 0.045 mPa·s; (293.15 K) 4.025 ± 0.039 mPa·s; (298.15 K) 3.497 ± 0.034 mPa·s; (303.15 K) 3.022 ± 0.029 mPa·s; (313.15 K) 2.312 ± 0.023 mPa·s. For the same molecule, the mass density is reported as 818.32 ± 0.13 kg/m3 (288.15 K); 814.63 ± 0.13 kg/m3 (293.15 K); 810.96 ± 0.13 kg/m3 (298.15 K); 807.26 ± 0.13 kg/m3 (303.15 K); 799.78 ± 0.14 kg/m3 (313.15 K).

Values taken from the NIST ThermoML archive (doi:10.1021/je1013476).
